Assays:
Format in all cases: in vivo
[1] = tested on: Echinochloa crus-gali (ECHCG); test: Post-emergence herbicidal glasshouse test; details: 250 g/ha, sprayed after 8 days cultivation, evaluated after 13 days
Method: (§1) Seeds of a variety of test species are sown in standard soil in pots Amaranthus pa/meri (AMAPA), Amaranthus retoflexus (AMARE), Echinochloa crus-gali (ECHCG), Ipomoea hederacea (IPOHE), Setaria faberi (SETFA). After cultivation for one day (pre-emergence) or after 8 days cultivation (post-emergence) under controlled conditions in a glasshouse (at 24/16° C., day/night; 14 hours light; 65% humidity), the plants are sprayed with an aqueous spray solution derived from the formulation of the technical active ingredient in acetone/water (50:50) solution containing 0.5% Tween 20 (polyoxyethelyene sorbitan monolaurate, CAS RN 9005-64-5). Compounds are applied at 250 g/ha unless otherwise stated. The test plants are then grown in a glasshouse under controlled conditions in a glasshouse (at 24/16° C., day/night; 14 hours light; 65% humidity) and watered twice daily. After 13 days for pre and post-emergence, the test is evaluated for the percentage damage caused to the plant. The biological activities are shown in the following table on a five-point scale (5=81-100%; 4=61-80%; 3=41-60%; 2=21-40%; 1=0-20%).

[2] = tested on: Amaranthus pa/meri (AMAPA); test: Post-emergence herbicidal glasshouse test; details: 250 g/ha, sprayed after 8 days cultivation, evaluated after 13 days
Method: as §1

[3] = tested on: Amaranthus retoflexus (AMARE); test: Post-emergence herbicidal glasshouse test; details: 250 g/ha, sprayed after 8 days cultivation, evaluated after 13 days
Method: as §1

[4] = tested on: Ipomoea hederacea (IPOHE); test: Post-emergence herbicidal glasshouse test; details: 250 g/ha, sprayed after 8 days cultivation, evaluated after 13 days
Method: as §1

Setaria faberi (SETFA) [5] = test: Post-emergence herbicidal glasshouse test; details: 250 g/ha, sprayed after 8 days cultivation, evaluated after 13 days
Method: as §1

[6] = tested on: Echinochloa crus-gali (ECHCG); test: Pre-emergence herbicidal glasshouse test; details: 250 g/ha, sprayed after one day cultivation, evaluated after 13 days
Method: as §1

[7] = tested on: Amaranthus pa/meri (AMAPA); test: Pre-emergence herbicidal glasshouse test; details: 250 g/ha, sprayed after one day cultivation, evaluated after 13 days
Method: as §1

[8] = tested on: Amaranthus retoflexus (AMARE); test: Pre-emergence herbicidal glasshouse test; details: 250 g/ha, sprayed after one day cultivation, evaluated after 13 days
Method: as §1

[9] = tested on: Ipomoea hederacea (IPOHE); test: Pre-emergence herbicidal glasshouse test; details: 250 g/ha, sprayed after one day cultivation, evaluated after 13 days
Method: as §1

Setaria faberi (SETFA) [10] = test: Pre-emergence herbicidal glasshouse test; details: 250 g/ha, sprayed after one day cultivation, evaluated after 13 days
Method: as §1

| Compound | percentage damage caused to the plant, ECHCG [1] | percentage damage caused to the plant, AMAPA [2] | percentage damage caused to the plant, AMARE [3] | percentage damage caused to the plant, IPOHE [4] | percentage damage caused to the plant, SETFA (Setaria faberi (SETFA) [5]) | percentage damage caused to the plant, ECHCG [6] | percentage damage caused to the plant, AMAPA [7] | percentage damage caused to the plant, AMARE [8] | percentage damage caused to the plant, IPOHE [9] | percentage damage caused to the plant, SETFA (Setaria faberi (SETFA) [10]) |
| --- | --- | --- | --- | --- | --- | --- | --- | --- | --- | --- |
| FC(F)COCc1nc(C(F)(F)F)cn1Cc1ncc(Cl)cn1 [Compound 1.022] | 1 (1=0-20%) | 3 (3=41-60%) | 3 (3=41-60%) | 3 (3=41-60%) | 1 (1=0-20%) | 1 (1=0-20%) | 2 (2=21-40%) | 3 (3=41-60%) | 4 (4=61-80%) | 1 (1=0-20%) |
| COCc1nc(C(F)(F)F)cn1Cc1ncc(Cl)cn1 [Compound 1.023] | 1 (1=0-20%) | 1 (1=0-20%) | 1 (1=0-20%) | 2 (2=21-40%) | 1 (1=0-20%) | 1 (1=0-20%) | 2 (2=21-40%) | 2 (2=21-40%) | 1 (1=0-20%) | 1 (1=0-20%) |
| CCCCc1nc(C(F)(F)F)cn1Cc1ccc(Cl)cn1 [Compound 1.081] | 1 (1=0-20%) | 3 (3=41-60%) | 3 (3=41-60%) | 2 (2=21-40%) |  | 1 (1=0-20%) | 2 (2=21-40%) | 2 (2=21-40%) | 1 (1=0-20%) |  |
| CON=CCCc1nc(C(F)(F)F)cn1Cc1ncc(Cl)cn1 (single isomer, unassigned) [Compound 1.007, 3-[1-[(5-chloropyrimidin-2-yl)methyl]-4-(trifluoromethyl)-imidazol-2-yl]-N-methoxy-propan-1-imine] | 1 (1=0-20%) | 4 (4=61-80%) | 4 (4=61-80%) | 3 (3=41-60%) |  | 2 (2=21-40%) | 5 (5=81-100%) | 5 (5=81-100%) | 5 (5=81-100%) |  |
| CCCCc1nc(C(F)(F)F)cn1Cc1ccc(C#N)cn1 [Compound 1.056] | 1 (1=0-20%) | 2 (2=21-40%) | 2 (2=21-40%) | 2 (2=21-40%) |  | 1 (1=0-20%) | 4 (4=61-80%) | 4 (4=61-80%) | 2 (2=21-40%) |  |
| CCCCc1nc(C=NOC)cn1Cc1ncc(Cl)cn1 (single isomer, unassigned) [Compound 1.076, 1-[2-butyl-1-[(5-chloropyrimidin-2-yl)methyl]imidazol-4-yl]-N-methoxy-methanimine] | 1 (1=0-20%) | 1 (1=0-20%) | 1 (1=0-20%) | 1 (1=0-20%) |  | 1 (1=0-20%) | 1 (1=0-20%) | 1 (1=0-20%) | 1 (1=0-20%) |  |
| CCCCc1nc(C(F)(F)F)cn1Cc1ncc(F)cn1 [Compound 1.077, 2-[[2-butyl-4-(trifluoromethyl)imidazol-1-yl]methyl]-5-fluoro-pyrimidine] | 1 (1=0-20%) | 2 (2=21-40%) | 3 (3=41-60%) | 3 (3=41-60%) |  | 1 (1=0-20%) | 5 (5=81-100%) | 5 (5=81-100%) | 5 (5=81-100%) |  |
| FC(F)(F)c1cn(Cc2ncc(Cl)cn2)c(CC2CCOC2)n1 (stereo not drawn) [Compound 1.074] | 3 (3=41-60%) | 4 (4=61-80%) | 4 (4=61-80%) | 4 (4=61-80%) |  | 3 (3=41-60%) | 5 (5=81-100%) | 5 (5=81-100%) | 5 (5=81-100%) |  |
| CCCCc1nc(C(F)F)cn1Cc1ncc(Cl)cn1 [Compound 1.053, 2-[[2-butyl-4-(difluoromethyl)imidazol-1-yl]methyl]-5-chloro-pyrimidine] | 1 (1=0-20%) | 1 (1=0-20%) | 1 (1=0-20%) | 1 (1=0-20%) |  | 1 (1=0-20%) | 1 (1=0-20%) | 1 (1=0-20%) | 1 (1=0-20%) |  |
| O=CCCc1nc(C(F)(F)F)cn1Cc1ncc(Cl)cn1 [Compound 1.013, 3-[1-[(5-chloropyrimidin-2-yl)methyl]-4-(trifluoromethyl)imidazol-2-yl]propanal] | 1 (1=0-20%) | 1 (1=0-20%) | 1 (1=0-20%) | 1 (1=0-20%) |  | 1 (1=0-20%) | 2 (2=21-40%) | 5 (5=81-100%) | 1 (1=0-20%) |  |
| CCCc1nc(C(F)(F)F)cn1Cc1ncc(Cl)cn1 [Compound 1.042] | 1 (1=0-20%) | 3 (3=41-60%) | 3 (3=41-60%) | 3 (3=41-60%) |  | 1 (1=0-20%) | 4 (4=61-80%) | 4 (4=61-80%) | 4 (4=61-80%) |  |
| CCCCc1nc(C(F)(F)F)cn1Cc1ncc(Cl)cc1F [Compound 1.058] | 4 (4=61-80%) | 3 (3=41-60%) | 4 (4=61-80%) | 4 (4=61-80%) |  | 5 (5=81-100%) | 5 (5=81-100%) | 5 (5=81-100%) | 5 (5=81-100%) |  |
| CCCCCc1nc(C(F)(F)F)cn1Cc1ncc(C#N)cn1 [Compound 1.015] | 1 (1=0-20%) | 1 (1=0-20%) | 2 (2=21-40%) | 3 (3=41-60%) |  | 1 (1=0-20%) | 4 (4=61-80%) | 4 (4=61-80%) | 2 (2=21-40%) |  |

Reference: US20260035359A1, “HERBICIDAL IMIDAZOLE COMPOUNDS” (SYNGENTA CROP PROTECTION AG, priority 2022, published 2026)
